The record followed here is patent US10981926B2 (Janssen Pharmaceutica NV, priority 2016, dated 2021).

Where only a bound is given, the exact number is not on record here.

Holding throughout (assay type): cell-based
Experiment [1] concerns the target T1, F876L mutant Androgen Receptor (AR-F876L) (Homo sapiens (Human), UniProt P10275, F877L). In words: LNCaP-AR-F876L ANT reporter assay (antagonist mode). The following applies: for IC50: pIC50 = −Log10(IC50 in Molar), read-out: LNCaP-AR-F876L ANT pIC50 (converted); for Emax: read-out: LNCaP-AR-F876L ANT MAX % Inh. In general terms: In a reporter assay the amount or activity of a reporter protein is the signal.

Experiment [2] concerns the target T1, F876L mutant Androgen Receptor (AR-F876L). In words: LNCaP-AR-F876L AG reporter assay (agonist mode). The following applies: for EC50: pEC50 = −Log10(EC50 in Molar), read-out: LNCaP-AR-F876L AG pEC50 (converted); for Emax: read-out: LNCaP-AR-F876L AG MAX % Stim.
Experiment [3] deals with T2, wild-type Androgen Receptor (AR-wt) (Homo sapiens (Human), UniProt P10275). In words: LNCaP-AR-wt AG reporter assay (agonist mode). The following applies: for EC50: pEC50 = −Log10(EC50 in Molar), read-out: LNCaP-AR-wt AG pEC50 (converted); for Emax: read-out: LNCaP-AR-wt AG MAX % Stim.
Experiment [4] deals with T2, wild-type Androgen Receptor (AR-wt). Kind of experiment: LNCaP-AR-wt ANT reporter assay (antagonist mode). The following applies: for IC50: pIC50 = −Log10(IC50 in Molar), read-out: LNCaP-AR-wt ANT pIC50 (converted); for Emax: read-out: LNCaP-AR-wt ANT MAX % Inh.
The mark [5] stands for this setting: maximum % inhibition of R1881 control response over the tested concentration range.
Setting [6] is: maximum % stimulation (agonist response) over the tested concentration range.
[7] abbreviates: antagonist mode, maximum % inhibition of R1881 control response over tested concentration range.
Setting [8] is: agonist mode, maximum % stimulation over tested concentration range.

T2 sequence (P10275 whole entry): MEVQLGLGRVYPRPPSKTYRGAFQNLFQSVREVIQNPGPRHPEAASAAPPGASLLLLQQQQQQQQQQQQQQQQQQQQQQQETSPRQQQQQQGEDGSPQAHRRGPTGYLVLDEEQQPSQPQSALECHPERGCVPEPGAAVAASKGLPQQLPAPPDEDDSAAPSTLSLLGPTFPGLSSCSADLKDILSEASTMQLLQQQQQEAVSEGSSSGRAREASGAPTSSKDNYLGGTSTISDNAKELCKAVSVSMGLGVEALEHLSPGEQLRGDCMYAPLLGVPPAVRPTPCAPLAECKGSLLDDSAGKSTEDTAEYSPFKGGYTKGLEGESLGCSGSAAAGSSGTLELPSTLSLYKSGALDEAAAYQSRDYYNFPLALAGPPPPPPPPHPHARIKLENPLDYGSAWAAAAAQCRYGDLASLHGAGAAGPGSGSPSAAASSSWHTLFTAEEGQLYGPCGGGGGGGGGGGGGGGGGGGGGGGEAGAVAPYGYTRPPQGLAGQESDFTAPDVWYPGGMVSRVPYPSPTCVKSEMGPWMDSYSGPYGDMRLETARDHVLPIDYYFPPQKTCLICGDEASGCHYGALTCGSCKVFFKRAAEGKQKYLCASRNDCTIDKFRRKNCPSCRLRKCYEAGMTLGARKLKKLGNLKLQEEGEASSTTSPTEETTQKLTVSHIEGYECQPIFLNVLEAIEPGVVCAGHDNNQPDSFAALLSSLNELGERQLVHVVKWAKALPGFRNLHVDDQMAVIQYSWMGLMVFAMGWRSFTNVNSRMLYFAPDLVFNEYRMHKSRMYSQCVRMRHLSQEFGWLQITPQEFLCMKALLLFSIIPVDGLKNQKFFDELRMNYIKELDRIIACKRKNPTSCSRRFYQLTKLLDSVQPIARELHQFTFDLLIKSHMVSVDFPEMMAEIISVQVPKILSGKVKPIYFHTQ
T1 sequence (P10275 whole entry F877L): as the sequence (P10275 whole entry) above, with F877L counted along it

With `N#Cc1ncc(N2C(=O)C3(CCC3)N(c3ccc(OC4CCN(CCCF)CC4)cc3)C2=S)cc1C(F)(F)F` [Cpd 14, 5-(5-(4-((1-(3-fluoropropyl)piperidin-4-yl)oxy)phenyl)-8-oxo-6-thioxo-5,7-diazaspiro[3.4]octan-7-yl)-3-(trifluoromethyl)picolinonitrile], the IC50 in experiment [1] (antagonist mode) was 234 nM; in experiment [4] (antagonist mode), 562 nM. Besides, the Emax in experiment [1] (setting [5]) amounted to 98.4%; in experiment [2] (setting [6]), 0.2%; in experiment [3] (setting [6]), 0.4%; in experiment [4] (setting [5]), 97.1%. Moreover, the EC50 in experiment [2] (agonist mode) and in experiment [3] (agonist mode) was more than 15100 nM in each case.
In the case of `Cn1ncc2cc(N3C(=S)N(c4cnc(C#N)c(Cl)c4)C(=O)C34CCC4)ccc21` [Cpd 168, 3-chloro-5-[8-(1-methylindazol-5-yl)-5-oxo-7-thioxo-6,8-diazaspiro[3.4]octan-6-yl]pyridine-2-carbonitrile], the IC50 in experiment [1] (antagonist mode) is 145 nM; in experiment [4] (antagonist mode), 95.5 nM. Moreover, the Emax worked out at 99.3% in experiment [1] (setting [5]), 0.8% in experiment [2] (setting [6]), 0% in experiment [3] (setting [6]) and 101% in experiment [4] (setting [5]). Further, the EC50 in experiment [2] (agonist mode) and in experiment [3] (agonist mode) was more than 15100 nM throughout.
As to `N#Cc1ncc(N2C(=O)C3(CCC3)N(c3ccc4[nH]c(CCO)nc4c3)C2=S)cc1C(F)(F)F`, the Emax in experiment [1] (setting [7]) was determined as 100%; in experiment [2] (setting [8]), 0.1%; in experiment [3] (setting [8]), 0.4%; in experiment [4] (setting [7]), 0%. The IC50 in experiment [1] (antagonist mode) is 832 nM; in experiment [4] (antagonist mode), 1740 nM. The EC50 in experiment [2] (agonist mode) and in experiment [3] (agonist mode) was more than 15100 nM in each case.
As for `N#Cc1ncc(N2C(=O)C3(CCC3)N(c3ccc4c(ccn4CCO)c3)C2=S)cc1C(F)(F)F` [Cpd 248, 5-[8-[1-(2-hydroxyethyl)indol-5-yl]-5-oxo-7-thioxo-6,8-diazaspiro[3.4]octan-6-yl]-3-(trifluoromethyl)pyridine-2-carbonitrile], the Emax in experiment [1] (setting [7]) stood at 102%; in experiment [2] (setting [8]) it was 0.4%; in experiment [3] (setting [8]) it was 0%; in experiment [4] (setting [7]), 0%. Besides, the IC50 in experiment [1] (antagonist mode) was 372 nM; in experiment [4] (antagonist mode), 417 nM. In addition, the EC50 in experiment [2] (agonist mode) and in experiment [3] (agonist mode) was more than 15100 nM throughout.
On to `N#Cc1ncc(N2C(=O)C3(CCC3)N(c3ccc(C(=O)NCC4CCNCC4)c(F)c3)C2=S)cc1C(F)(F)F` [Cpd 221, 4-[6-[6-cyano-5-(trifluoromethyl)-3-pyridyl]-5-oxo-7-thioxo-6,8-diazaspiro[3.4]octan-8-yl]-2-fluoro-N-(4-piperidylmethyl)benzamide], for which the Emax in experiment [1] (setting [7]) was 100%; in experiment [2] (setting [8]) it was 0.1%; in experiment [3] (setting [8]), -0.1%; in experiment [4] (setting [7]) it was 101%. Further, the IC50 in experiment [1] (antagonist mode) is 589 nM; in experiment [4] (antagonist mode) it was 891 nM. The EC50 in experiment [2] (agonist mode) and in experiment [3] (agonist mode) was more than 15100 nM each time.
Turning to `N#Cc1ncc(N2C(=O)C3(CCC3)N(c3ccc(OC4CCN5CCCC5C4)cc3)C2=S)cc1C(F)(F)F` (stereo not drawn) [Cpd 156, 5-[8-[4-(1,2,3,5,6,7,8,8a-octahydroindolizin-7-yloxy)phenyl]-5-oxo-7-thioxo-6,8-diazaspiro[3.4]octan-6-yl]-3-(trifluoromethyl)pyridine-2-carbonitrile], the IC50 in experiment [1] (antagonist mode) was 178 nM; in experiment [4] (antagonist mode), 282 nM. Also, the Emax turned out to be 101% in experiment [1] (setting [5]), 0.9% in experiment [2] (setting [6]), 1% in experiment [3] (setting [6]) and 100% in experiment [4] (setting [5]). Also, the EC50 in experiment [2] (agonist mode) and in experiment [3] (agonist mode) was more than 15100 nM throughout.
Regarding `N#Cc1ncc(N2C(=O)C3(CCC3)N(c3ccc(OC4CCNC5(CCC5)C4)cc3)C2=S)cc1C(F)(F)F` (racemic) [Cpd 151, (R,S)-5-[8-[4-(9-azaspiro[3.5]nonan-6-yloxy)phenyl]-5-oxo-7-thioxo-6,8-diazaspiro[3.4]octan-6-yl]-3-(trifluoromethyl)pyridine-2-carbonitrile], the figures for the IC50 in experiment [1] (antagonist mode) and in experiment [4] (antagonist mode) were 145 nM and 234 nM, respectively. Further, the Emax in experiment [1] (setting [5]) is 104%; in experiment [2] (setting [6]), -0.1%; in experiment [3] (setting [6]), 0%; in experiment [4] (setting [5]), 106%. Moreover, the EC50 in experiment [2] (agonist mode) and in experiment [3] (agonist mode) was more than 15100 nM each time.
Regarding `CN1CCC[C@@H](CNC(=O)c2ccc(N3C(=S)N(c4cnc(C#N)c(C(F)(F)F)c4)C(=O)C34CCC4)cc2)C1` [Cpd 185, 4-[6-[6-cyano-5-(trifluoromethyl)-3-pyridyl]-5-oxo-7-thioxo-6,8-diazaspiro[3.4]octan-8-yl]-N-[[(3S)-1-methyl-3-piperidyl]methyl]benzamide], the Emax in experiment [1] (setting [7]) worked out at 102%; in experiment [2] (setting [8]) it was 0.8%; in experiment [3] (setting [8]), 0.2%; in experiment [4] (setting [7]), 102%. Besides, the IC50 was 427 nM in experiment [1] (antagonist mode) and 708 nM in experiment [4] (antagonist mode). Also, the EC50 in experiment [2] (agonist mode) and in experiment [3] (agonist mode) was more than 15100 nM each time.
As for `CC(C)(C)OC(=O)NC1C(C)(C)C(Oc2ccc(N3C(=S)N(c4cnc(C#N)c(C(F)(F)F)c4)C(=O)C34CCC4)cc2)C1(C)C` (stereo not drawn) [Cpd 110, tert-butyl N-[3-[4-[6-[6-cyano-5-(trifluoromethyl)-3-pyridyl]-5-oxo-7-thioxo-6,8-diazaspiro[3.4]octan-8-yl]phenoxy]-2,2,4,4-tetramethyl-cyclobutyl]carbamate], the IC50 is 91.2 nM in experiment [1] (antagonist mode) and 132 nM in experiment [4] (antagonist mode). Also, the Emax in experiment [1] (setting [5]) came out at 100%; in experiment [2] (setting [6]), 0.2%; in experiment [3] (setting [6]), 0.3%; in experiment [4] (setting [5]), 101%. In addition, the EC50 in experiment [2] (agonist mode) and in experiment [3] (agonist mode) was more than 15100 nM each time.
As for `N#Cc1ncc(N2C(=O)C3(CCC3)N(c3ccc4nn(CC5CCNCC5)cc4c3)C2=S)cc1C(F)(F)F` [Cpd 126, 5-[5-oxo-8-[2-(4-piperidylmethyl)indazol-5-yl]-7-thioxo-6,8-diazaspiro[3.4]octan-6-yl]-3-(trifluoromethyl)pyridine-2-carbonitrile], the results for the IC50 in experiment [1] (antagonist mode) and in experiment [4] (antagonist mode) were 204 nM and 275 nM, respectively. Besides, the Emax in experiment [1] (setting [5]) came out at 100%; in experiment [2] (setting [6]), 0.8%; in experiment [3] (setting [6]), 0.2%; in experiment [4] (setting [5]), 101%. In addition, the EC50 in experiment [2] (agonist mode) and in experiment [3] (agonist mode) was more than 15100 nM in each case.
Regarding `COc1cc(N2C(=S)N(c3cnc(C#N)c(C)c3)C(=O)C23CCC3)ccc1-c1ccc(C)o1` [Cpd 5, 5-{8-[3-methoxy-4-(5-methyl(2-furyl))phenyl]-5-oxo-7-thioxo-6,8-diazaspiro[3.4]oct-6-yl}-3-methylpyridine-2-carbonitrile], the values for the IC50 in experiment [1] (antagonist mode) and in experiment [4] (antagonist mode) were 661 nM and 676 nM, respectively. Besides, the Emax in experiment [1] (setting [5]) amounted to 90.3%; in experiment [2] (setting [6]) it was 3.3%; in experiment [3] (setting [6]) it was 1.2%; in experiment [4] (setting [5]) it was 98.8%. Also, the EC50 in experiment [2] (agonist mode) and in experiment [3] (agonist mode) was more than 15100 nM in each case.
In the case of `N#Cc1ncc(N2C(=O)C3(CCC3)N(C3CCC(NC(=O)c4ccccc4)CC3)C2=S)cc1C(F)(F)F` (stereo not drawn) [Cpd 134, N-[4-[6-[6-cyano-5-(trifluoromethyl)-3-pyridyl]-5-oxo-7-thioxo-6,8-diazaspiro[3.4]octan-8-yl]cyclohexyl]benzamide], the IC50 in experiment [1] (antagonist mode) is 339 nM; in experiment [4] (antagonist mode), 759 nM. For the same compound, the EC50 in experiment [2] (agonist mode) and in experiment [3] (agonist mode) was more than 15100 nM throughout.
Regarding `Cc1cc(N2C(=O)C3(CCC3)N(c3ccc(-c4cn[nH]c4)cc3)C2=S)cnc1C#N` [Cpd 3, 3-methyl-5-[5-oxo-8-[4-(1H-pyrazol-4-yl)phenyl]-7-thioxo-6,8-diazaspiro[3.4]octan-6-yl]pyridine-2-carbonitrile], the figures for the IC50 in experiment [1] (antagonist mode) and in experiment [4] (antagonist mode) were 324 nM and 407 nM, respectively. In addition, the Emax is 98.9% in experiment [1] (setting [5]), 1.8% in experiment [2] (setting [6]), 2.2% in experiment [3] (setting [6]) and 97.8% in experiment [4] (setting [5]). Further, the EC50 in experiment [2] (agonist mode) and in experiment [3] (agonist mode) was more than 15100 nM in each case.
As to `N#Cc1ncc(N2C(=O)C3(CCC3)N(c3ccc(OC4CCCNCC4)cc3)C2=S)cc1C(F)(F)F` (stereo not drawn) [Cpd 17, 5-[8-(4-azaperhydroepin-4-yloxyphenyl)-5-oxo-7-thioxo-6,8-diazaspiro[3.4]oct-6-yl]-3-(trifluoromethyl)pyridine-2-carbonitrile], the IC50 is 457 nM in experiment [1] (antagonist mode) and 1510 nM in experiment [4] (antagonist mode). The Emax in experiment [1] (setting [5]) is 100%; in experiment [3] (setting [6]) it was 0.3%; in experiment [4] (setting [5]), 98.5%. Besides, the EC50 in experiment [2] (agonist mode) and in experiment [3] (agonist mode) was more than 15100 nM each time. Further, the “LNCaP-AR-F876L AG MAX % Stim” value in experiment [2] (setting [6]) is listed as 0.1%.
